From patent publication US20260098026A1, “M4 ACTIVATORS/MODULATORS AND USES THEREOF” (Cerevel Therapeutics, LLC, priority 2022, published 2026) come the findings set out here.

Broadly, the Emax is the size of the effect at its maximum, as opposed to the concentration needed. Broadly, the EC50 is the concentration giving half of the maximal effect.

A value given as a limit tells only on which side of the number the result lay.

The first assay concerns the target T1, M4 mAChR (Homo sapiens, UniProt P08173).
T1 construct: expressed in transfected cells; host or cells: CHO-K1
T1 sequence (P08173 1-479): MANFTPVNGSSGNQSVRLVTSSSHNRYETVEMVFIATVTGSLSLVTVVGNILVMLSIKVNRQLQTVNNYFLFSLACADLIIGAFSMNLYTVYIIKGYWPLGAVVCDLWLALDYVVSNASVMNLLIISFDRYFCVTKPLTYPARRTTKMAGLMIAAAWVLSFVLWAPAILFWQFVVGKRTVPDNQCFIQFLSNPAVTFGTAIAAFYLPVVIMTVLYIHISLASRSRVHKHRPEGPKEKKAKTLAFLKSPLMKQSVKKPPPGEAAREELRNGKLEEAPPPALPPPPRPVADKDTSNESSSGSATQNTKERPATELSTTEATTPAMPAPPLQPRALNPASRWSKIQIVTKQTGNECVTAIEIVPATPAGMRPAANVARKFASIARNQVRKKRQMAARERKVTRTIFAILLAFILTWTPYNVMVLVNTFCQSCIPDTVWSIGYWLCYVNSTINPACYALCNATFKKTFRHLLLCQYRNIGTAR
Kind of assay: cAMP TR-FRET assay with forskolin, M4-overexpressing CHO-K1 cells. It counts as cell-based. The settings on record: cAMP TR-FRET with forskolin. Put shortly: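 CHO-K1 cells overexpressing the receptor were stimulated with forskolin to raise cAMP, so that Gi-mediated agonist decreases could be measured. cAMP was quantified by TR-FRET competition between cellular cAMP and labelled donor for anti-cAMP antibody, giving potency and efficacy.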
For orientation: In TR-FRET formats the signal depends on donor and acceptor labels being close together.
Take `CCOC(=O)N1CC2(CC[C@@H](N3CCN(c4cc(F)cnc4-c4ccc(F)c(CO)c4)CC3)C2)C1` [Compound A105]: the Emax was 80 to 100%.

On to `CCOC(=O)N1CC2(CC[C@@H](N3CCN(c4cc(Cl)cnc4C4CCOCC4)CC3)C2)C1` (single isomer, unassigned) [Compound A15], for which the Emax is 80 to 100%.

In turn, `CCOC(=O)N1CC2(CC[C@@H](N3CCN(c4cc(F)cnc4-c4cncc(COC)c4)CC3)C2)C1` [Compound A138] came in with an Emax of 80 to 100%.

For `CCOC(=O)N1CC2(CC[C@@H](N3CCN(c4cc(F)cnc4-c4ccnn4CC(C)C)CC3)C2)C1` [Compound A77], the Emax fell in the range of 80 to 100%.

With `CCOC(=O)N1CC2(CC[C@@H](N3CCN(c4cc(F)cnc4-c4cccc(F)c4O)CC3)C2)C1` [Compound A118], the Emax is 80 to 100%.

The same assay, now with this note: cAMP assay.
The compound `CCOC(=O)N1CC2(CC[C@@H](N3CCN(c4cc(F)cnc4-c4cnc(C(F)(F)F)cn4)CC3)C2)C1` [Compound A250] had an Emax of 80 to 100%.

Compound `CCOC(=O)N1CC2(CC[C@@H](N3CCN(c4cc(F)cnc4-c4ccc5c(c4)nnn5C)CC3)C2)C1` [Compound A176] showed an Emax of 80 to 100%.

Turning to `CCOC(=O)N1CC2(CC[C@@H](N3CCN(c4cc(Cl)cnc4-c4cccnn4)CC3)C2)C1` [Compound A245], the Emax was in the range of 80 to 100%.

The compound `CCOC(=O)N1CC2(CC[C@@H](N3CCN(c4cc(F)cnc4-c4cnn(C)c4)CC3)C2)C1` [Compound A190] came in with an Emax of 80 to 100%.

`CCOC(=O)N1CC2(CC[C@@H](N3CCN(c4cc(F)cnc4-c4ccc(F)cn4)CC3)C2)C1` [Compound A218] showed an Emax of 80 to 100%.

As to `CCOC(=O)N1CC2(CC[C@@H](N3CCN(c4cc(F)cnc4-c4ccnc(F)n4)CC3)C2)C1` [Compound A284], the Emax lay in the range of 80 to 100%.

Take `CCOC(=O)N1CC2(CC[C@@H](N3CCN(c4cc(F)cnc4-c4cn(C)nc4C)CC3)C2)C1` [Compound A157]: the Emax lay within 80 to 100%.

On to `CCOC(=O)N1CC2(CC[C@@H](N3CCN(c4cc(F)cnc4-c4ccn5nccc5c4)CC3)C2)C1` [Compound A165], for which the Emax fell in the range of 80 to 100%.

As to `CCOC(=O)N1CC2(CC[C@@H](N3CCN(c4cc(F)cnc4C4CCN(C)CC4)CC3)C2)C1` [Compound A273], the maximal response (Emax) fell in the range of 80 to 100%.

Compound `CCOC(=O)N1CC2(CC[C@@H](N3CCN(c4cc(F)cnc4-c4cnn(COC)c4)CC3)C2)C1` [Compound A168] displayed an Emax of 80 to 100%.

`CCOC(=O)N1CC2(CC[C@@H](N3CCN(c4cc(F)cnc4C4=CCN(C)CC4)CC3)C2)C1` [Compound A197] registered an Emax of 80 to 100%.

With `CCOC(=O)N1CC2(CC[C@@H](N3CCN(c4cc(F)cnc4C4=CCOCC4)CC3)C2)C1` [Compound A193], the Emax fell in the range of 80 to 100%.

In turn, `CCOC(=O)N1CC2(CCC(N3CCN(c4cccnc4N4CCC(C#N)CC4)CC3)C2)C1` (stereo not shown) [Compound A217] returned an Emax of 80 to 100%.

The compound `CCOC(=O)N1CC2(CC[C@@H](N3CCN(c4cc(Cl)cnc4-c4ccc(C)nn4)CC3)C2)C1` [Compound A251] had an Emax of 80 to 100%.

Take `CCOC(=O)N1CC2(CC[C@@H](N3CCN(c4cc(Cl)cnc4-c4cnn(C)c4)CC3)C2)C1` [Compound A204]: the Emax lay within 80 to 100%.

`CCOC(=O)N1CC2(CCC(N3[C@@H]4CC[C@H]3CN(c3cc(F)cnc3-c3cnccn3)C4)C2)C1` (single isomer, unassigned) [Compound A223] displayed an Emax of 80 to 100%.

Regarding `CCOC(=O)N1CC2(CCC(N3CCN(c4cccnc4N4CCC(OC)CC4)CC3)C2)C1` (stereo not shown) [Compound A216], the maximal effect (Emax) lay within 80 to 100%.

The compound `CCOC(=O)N1CC2(CC(N3[C@@H]4CC[C@H]3CN(c3cc(F)cnc3-c3cnccn3)C4)CS2)C1` (single isomer, unassigned) [Compound A219] gave an Emax of under 19%.

The target in a further assay is T2, M3 muscarinic acetylcholine receptor (mAChR) (Homo sapiens, UniProt P20309).
T2 construct: expressed in transfected cells; host or cells: CHO-K1
T2 sequence (P20309 whole entry): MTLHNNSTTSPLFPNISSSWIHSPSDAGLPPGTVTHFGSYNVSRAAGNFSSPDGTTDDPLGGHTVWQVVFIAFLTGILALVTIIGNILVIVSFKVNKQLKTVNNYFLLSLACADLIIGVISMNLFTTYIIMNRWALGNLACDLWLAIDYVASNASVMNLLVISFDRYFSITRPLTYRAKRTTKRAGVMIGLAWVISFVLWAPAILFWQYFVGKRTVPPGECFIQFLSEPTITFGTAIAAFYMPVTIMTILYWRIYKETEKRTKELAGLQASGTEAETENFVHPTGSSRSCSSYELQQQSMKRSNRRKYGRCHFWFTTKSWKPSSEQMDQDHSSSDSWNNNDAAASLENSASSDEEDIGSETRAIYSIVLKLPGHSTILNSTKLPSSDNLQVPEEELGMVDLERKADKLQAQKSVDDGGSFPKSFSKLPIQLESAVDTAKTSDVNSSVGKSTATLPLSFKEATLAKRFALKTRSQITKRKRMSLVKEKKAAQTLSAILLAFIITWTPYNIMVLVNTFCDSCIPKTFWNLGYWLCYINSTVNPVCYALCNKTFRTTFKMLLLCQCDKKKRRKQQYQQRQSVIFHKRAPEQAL
Kind of assay: FLIPR calcium assay (Fluo 8), M3-overexpressing CHO-K1 cells. It counts as cell-based. The note with it: FLIPR. Put shortly:
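CHO-K1 cells overexpressing each human receptor seeded at 15,000 per well, grown overnight at 37° C., 5% CO2, then loaded with Fluo-8 for 30 min. Compounds in HBSS added and calcium response read on FLIPR; EC50 and Emax calculated per subtype.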
`CCOC(=O)N1CC2(CC[C@@H](N3CCN(c4cc(F)cnc4-c4cnc(C(F)(F)F)cn4)CC3)C2)C1` [Compound A250]: the EC50 is over 10 µM.

With `CCOC(=O)N1CC2(CC[C@@H](N3CCN(c4cc(F)cnc4-c4ccc5c(c4)nnn5C)CC3)C2)C1` [Compound A176], the EC50 is over 10 µM.

With `CCOC(=O)N1CC2(CC[C@@H](N3CCN(c4cc(Cl)cnc4-c4cccnn4)CC3)C2)C1` [Compound A245], the EC50 is over 10 µM.

In the case of `CCOC(=O)N1CC2(CC[C@@H](N3CCN(c4cc(F)cnc4-c4cnn(C)c4)CC3)C2)C1` [Compound A190], the EC50 was over 10 µM.

As for `CCOC(=O)N1CC2(CC[C@@H](N3CCN(c4cc(F)cnc4-c4ccc(F)cn4)CC3)C2)C1` [Compound A218], the EC50 was over 10 µM.

In the case of `CCOC(=O)N1CC2(CC[C@@H](N3CCN(c4cc(F)cnc4-c4ccnc(F)n4)CC3)C2)C1` [Compound A284], the concentration giving a half-maximal response (EC50) was over 10 µM.

Regarding `CCOC(=O)N1CC2(CC[C@@H](N3CCN(c4cc(F)cnc4-c4cn(C)nc4C)CC3)C2)C1` [Compound A157], the EC50 was over 10 µM.

With `CCOC(=O)N1CC2(CC[C@@H](N3CCN(c4cc(F)cnc4-c4ccn5nccc5c4)CC3)C2)C1` [Compound A165], the concentration giving a half-maximal response (EC50) was over 10 µM.

Regarding `CCOC(=O)N1CC2(CC[C@@H](N3CCN(c4cc(F)cnc4C4CCN(C)CC4)CC3)C2)C1` [Compound A273], the EC50 is over 10 µM.

Take `CCOC(=O)N1CC2(CC[C@@H](N3CCN(c4cc(F)cnc4-c4cnn(COC)c4)CC3)C2)C1` [Compound A168]: the EC50 is over 10 µM.

For `CCOC(=O)N1CC2(CC[C@@H](N3CCN(c4cc(F)cnc4C4=CCN(C)CC4)CC3)C2)C1` [Compound A197], the EC50 is over 10 µM.

As to `CCOC(=O)N1CC2(CC[C@@H](N3CCN(c4cc(F)cnc4C4=CCOCC4)CC3)C2)C1` [Compound A193], the EC50 was over 10 µM.

Regarding `CCOC(=O)N1CC2(CCC(N3CCN(c4cccnc4N4CCC(C#N)CC4)CC3)C2)C1` (stereo not shown) [Compound A217], the EC50 is over 10 µM.

Regarding `CCOC(=O)N1CC2(CC[C@@H](N3CCN(c4cc(Cl)cnc4-c4ccc(C)nn4)CC3)C2)C1` [Compound A251], the EC50 was over 10 µM.

For the compound `CCOC(=O)N1CC2(CC[C@@H](N3CCN(c4cc(Cl)cnc4-c4cnn(C)c4)CC3)C2)C1` [Compound A204], the EC50 was over 10 µM.

For `CCOC(=O)N1CC2(CCC(N3[C@@H]4CC[C@H]3CN(c3cc(F)cnc3-c3cnccn3)C4)C2)C1` (single isomer, unassigned) [Compound A223], the EC50 is over 10 µM.

For `CCOC(=O)N1CC2(CCC(N3CCN(c4cccnc4N4CCC(OC)CC4)CC3)C2)C1` (stereo not shown) [Compound A216], the EC50 was over 10 µM.

Take `CCOC(=O)N1CC2(CC(N3[C@@H]4CC[C@H]3CN(c3cc(F)cnc3-c3cnccn3)C4)CS2)C1` (single isomer, unassigned) [Compound A219]: the EC50 is over 10 µM.

The assay is the same for the next values; noted with them: FLIPR calcium.
Consider `CCOC(=O)N1CC2(CC[C@@H](N3CCN(c4cc(F)cnc4-c4ccc(F)c(CO)c4)CC3)C2)C1` [Compound A105], for which the EC50 is over 10 µM.

Consider `CCOC(=O)N1CC2(CC[C@@H](N3CCN(c4cc(Cl)cnc4C4CCOCC4)CC3)C2)C1` (single isomer, unassigned) [Compound A15], for which the EC50 was over 10 µM.

Turning to `CCOC(=O)N1CC2(CC[C@@H](N3CCN(c4cc(F)cnc4-c4cncc(COC)c4)CC3)C2)C1` [Compound A138], the EC50 is over 10 µM.

Turning to `CCOC(=O)N1CC2(CC[C@@H](N3CCN(c4cc(F)cnc4-c4ccnn4CC(C)C)CC3)C2)C1` [Compound A77], the EC50 is over 10 µM.

In the case of `CCOC(=O)N1CC2(CC[C@@H](N3CCN(c4cc(F)cnc4-c4cccc(F)c4O)CC3)C2)C1` [Compound A118], the EC50 is over 10 µM.
